Measured values from ChEMBL document CHEMBL1268823, “Bernthsen synthesis, antimicrobial activities and cytotoxicity of acridine derivatives” (Bioorg Med Chem Lett, 2010).
Values after ≈ are worked out from the molar mass of the structure shown.

Experiments:
Streptococcus pyogenes = assay: Antimicrobial activity against Streptococcus pyogenes by agar plate disk diffusion method; type: functional
Escherichia coli = assay: Antimicrobial activity against Escherichia coli by agar plate disk diffusion method; type: functional
Staphylococcus aureus = assay: Antimicrobial activity against Staphylococcus aureus by agar plate disk diffusion method; type: functional
Pseudomonas aeruginosa = assay: Antimicrobial activity against Pseudomonas aeruginosa by agar plate disk diffusion method; type: functional
Aspergillus niger = assay: Antifungal activity against Aspergillus niger by agar plate disk diffusion method; type: functional
HEK-293T = assay: Cytotoxicity against human HEK293T cells by MTT assay; type: functional, cell-based
HL-60 = assay: Cytotoxicity against human HL60 cells by MTT assay; type: functional, cell-based
HEp-2 = assay: Cytotoxicity against human Hep2 cells by MTT assay; type: functional, cell-based

Molecule | MIC (Streptococcus pyogenes) | MIC (Escherichia coli) | MIC (Staphylococcus aureus) | MIC (Pseudomonas aeruginosa) | MIC (Aspergillus niger) | IC50 (HEK-293T) | IC50 (HL-60) | IC50 (HEp-2)
O=C(O)c1cn(C2CC2)c2cc(N3CCNCC3)c(F)cc2c1=O [CIPROFLOXACIN] | 50 µg/mL (≈ 151 µM) | 25 µg/mL (≈ 75.4 µM) | 50 µg/mL (≈ 151 µM) | – | – | – | – | –
O=C(N[C@H](CO)[C@H](O)c1ccc([N+](=O)[O-])cc1)C(Cl)Cl [CHLORAMPHENICOL] | 50 µg/mL (≈ 155 µM) | 50 µg/mL (≈ 155 µM) | 50 µg/mL (≈ 155 µM) | 50 µg/mL (≈ 155 µM) | – | – | – | –
NYSTATIN | – | – | – | – | 100 µg/mL | – | – | –
O=c1cc(Cc2c3ccccc3nc3ccccc23)c2ccc([N+](=O)[O-])cc2o1 | 500 µg/mL (≈ 1310 µM) | 100 µg/mL (≈ 262 µM) | 250 µg/mL (≈ 654 µM) | 200 µg/mL (≈ 523 µM) | 500 µg/mL (≈ 1310 µM) | > 100 µM | > 100 µM | > 100 µM
O=c1cc(Cc2c3ccccc3nc3ccccc23)c2cc(O)ccc2o1 | 250 µg/mL (≈ 707 µM) | 50 µg/mL (≈ 141 µM) | 500 µg/mL (≈ 1410 µM) | 100 µg/mL (≈ 283 µM) | – | > 100 µM | > 100 µM | > 100 µM
O=c1cc(Cc2c3ccccc3nc3ccccc23)c2cc(Cl)ccc2o1 | 75 µg/mL (≈ 202 µM) | 75 µg/mL (≈ 202 µM) | 250 µg/mL (≈ 672 µM) | 25 µg/mL (≈ 67.2 µM) | 1000 µg/mL (≈ 2690 µM) | > 100 µM | 28.7 µM | > 100 µM
O=P1(N(CCCl)CCCl)NCCCO1 (stereo not drawn) [CYCLOPHOSPHAMIDE ANHYDROUS] | – | – | – | – | – | > 100 µM | 8.79 µM | > 100 µM
O=c1cc(Cc2c3ccccc3nc3ccccc23)c2ccccc2o1 | 250 µg/mL (≈ 741 µM) | 250 µg/mL (≈ 741 µM) | 250 µg/mL (≈ 741 µM) | 250 µg/mL (≈ 741 µM) | 500 µg/mL (≈ 1480 µM) | > 100 µM | > 100 µM | > 100 µM
CC1(C)S[C@@H]2[C@H](NC(=O)[C@H](N)c3ccccc3)C(=O)N2[C@H]1C(=O)O [AMPICILLIN] | 100 µg/mL (≈ 286 µM) | 100 µg/mL (≈ 286 µM) | 250 µg/mL (≈ 715 µM) | 100 µg/mL (≈ 286 µM) | – | – | – | –
O=c1cc(Cc2c3ccccc3nc3ccccc23)c2ccc(Cl)cc2o1 | 250 µg/mL (≈ 672 µM) | 50 µg/mL (≈ 134 µM) | 50 µg/mL (≈ 134 µM) | 500 µg/mL (≈ 1340 µM) | 1000 µg/mL (≈ 2690 µM) | > 100 µM | 27.5 µM | > 100 µM
COC1=CC(=O)C[C@@H](C)[C@]12Oc1c(Cl)c(OC)cc(OC)c1C2=O [GRISEOFULVIN] | – | – | – | – | 100 µg/mL (≈ 283 µM) | – | – | –
CCn1cc(C(=O)O)c(=O)c2cc(F)c(N3CCNCC3)cc21 [NORFLOXACIN] | 10 µg/mL (≈ 31.3 µM) | 10 µg/mL (≈ 31.3 µM) | 10 µg/mL (≈ 31.3 µM) | 10 µg/mL (≈ 31.3 µM) | – | – | – | –
Cc1ccc2oc(=O)cc(Cc3c4ccccc4nc4ccccc34)c2c1 | 100 µg/mL (≈ 285 µM) | 125 µg/mL (≈ 356 µM) | 125 µg/mL (≈ 356 µM) | 125 µg/mL (≈ 356 µM) | 500 µg/mL (≈ 1420 µM) | > 100 µM | > 100 µM | > 100 µM
Cc1ccc2c(Cc3c4ccccc4nc4ccccc34)cc(=O)oc2c1 | 50 µg/mL (≈ 142 µM) | 150 µg/mL (≈ 427 µM) | 500 µg/mL (≈ 1420 µM) | 62.5 µg/mL (≈ 178 µM) | 1000 µg/mL (≈ 2850 µM) | > 100 µM | > 100 µM | > 100 µM
O=c1cc(Cc2c3ccccc3nc3ccccc23)c2ccc(O)cc2o1 | 500 µg/mL (≈ 1410 µM) | 200 µg/mL (≈ 566 µM) | 500 µg/mL (≈ 1410 µM) | 250 µg/mL (≈ 707 µM) | > 1000 µg/mL | > 100 µM | > 100 µM | > 100 µM
